SMILES strings stand for the structures.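 Compound exposure: 48 hours, 5 concentrations, 96-well plates. At the GI50, growth is halved.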 Active and inactive are the calls of the source. Cut-off read from the data, not from the text of the source: active = GI50 up to about 1.1 µM and inactive = higher. Square brackets hold non-standard residues; d marks the D form. Peptide text beside a SMILES is read from it. * marks the point of attachment. Phe(4-NO2) = N[CH](Cc1ccc([N+](=O)[O-])cc1)C(=O)O; Boc = CC(C)(C)OC(=O)*

Holding throughout (assay): growth of human tumour cells (NCI), 48 h
For test [1], the system named is COLO 205.
For test [2], the system named is EKVX.
The subject of test [3] is HCC 2998.
In test [4] the test system is HCT-15.
The test system of test [5] is HT-29.
Test [6] has as its system IGROV-1.
In test [7] the test system is M14.
Test [8] relates to MCF7.
For test [9], the system named is MDA-MB-435.
Test [10] relates to NCI-H226.
Test [11] deals with NCI/ADR-RES.
The subject of test [12] is OVCAR-3.
The test system of test [13] is OVCAR-4.
Test [14] deals with SF-539.
In test [15] the test system is SK-MEL-5.
Test [16] deals with SN12C.
The test system of test [17] is SNB-75.
For test [18], the system named is SW-620.
Test [19] relates to UACC-62.
Test [20] deals with DLD-1.

With `N#C/C(=C\Nc1ccccn1)C(=O)C1CC1`, the GI50 in [1] is > 100 µM (inactive); in test [2], > 100 µM (inactive); in test [3] it was > 100 µM (inactive); in test [4], above 100 µM; in [5] it was > 100 µM (inactive); in test [6], > 100 µM (inactive). The GI50 in test [7], in test [8], in [9], in test [10], in test [11] and in test [12] was > 100 µM (inactive) in each case. In addition, the GI50 in test [13], in test [14], in test [15], in test [16], in [17] and in test [18] was > 100 µM (inactive) in each case. Besides, the GI50 in [19] is > 100 µM (inactive).
`N/N=C1\C(=O)N(CCc2ccccc2)C(=O)C1C(=O)NCCc1ccccc1` (stereo unspecified): the GI50 in test [20], in test [2], in test [5], in test [6], in test [7] and in test [10] was > 100 µM (inactive) each time. For the same molecule, the GI50 in [12], in [14], in [16], in [17], in [18] and in [19] was > 100 µM (inactive) in each case.
On to `OCCCCn1cc(Cn2ncc3c(SCc4ccccc4)ncnc32)nn1`, for which the GI50 was 31 µM (inactive) in [1]; 30.6 µM (inactive) in test [2]; 56.4 µM (inactive) in test [3]; 28.3 µM in test [4]; 40.5 µM (inactive) in test [5]; 77.6 µM (inactive) in test [6]. Besides, the GI50 was 29.9 µM (inactive) in [7]; 57 µM (inactive) in test [8]; 19.9 µM (inactive) in [9]; 93.5 µM (inactive) in test [10]; 21.6 µM (inactive) in test [11]; 28.2 µM (inactive) in test [12]. Moreover, the GI50 was 28.9 µM (inactive) in [13]; 43.2 µM (inactive) in [14]; 21.7 µM (inactive) in [15]; 63 µM (inactive) in test [16]; 38.7 µM (inactive) in test [17]; 26.7 µM (inactive) in [18]. In addition, in test [19], the GI50 was 44.5 µM (inactive).
Regarding `COc1c2nc(CCl)[nH]c(=O)c2c(OC)c2nc(CCl)[nH]c(=O)c12`, the GI50 in test [1] was > 100 µM (inactive); in [20] it was > 100 µM (inactive); in test [4], above 100 µM; in test [5], > 100 µM (inactive); in [6] it was > 100 µM (inactive); in test [7], > 100 µM (inactive). Further, the GI50 in [10], in test [12], in test [13], in test [14], in test [15] and in [16] was > 100 µM (inactive) in each case. Further, the GI50 in [17], in [18] and in [19] was > 100 µM (inactive) in each case.
For `CCOC1c2nc3ccccc3nc2-c2ccccc2N1C(C)=O` (stereo unspecified), the GI50 was > 100 µM (inactive) in test [1]; > 100 µM (inactive) in [20]; > 100 µM (inactive) in [2]; > 100 µM (inactive) in test [3]; above 100 µM in test [4]; > 100 µM (inactive) in [5]. The GI50 in test [6] is > 100 µM (inactive); in test [7] it was > 100 µM (inactive); in test [12], > 100 µM (inactive); in test [13], 74.6 µM (inactive); in test [14] it was > 100 µM (inactive); in [16] it was > 100 µM (inactive). For the same molecule, the GI50 in test [17] was 46.2 µM (inactive); in test [18] it was > 100 µM (inactive); in test [19] it was > 100 µM (inactive).
With `COc1cc2c(cc1OC)-c1cc3cc(OC)c(OC)cc3n1CC2`, the GI50 in test [1] was 32.4 µM (inactive); in test [20], 58.2 µM (inactive); in [2] it was > 100 µM (inactive); in [3], 61 µM (inactive); in test [5] it was 16.6 µM (inactive); in test [6] it was 90.8 µM (inactive). The GI50 in test [7] is 23.4 µM (inactive); in [10] it was 33.7 µM (inactive); in test [12], > 100 µM (inactive); in test [13], 22.7 µM (inactive); in [16], > 100 µM (inactive); in test [17], 18.5 µM (inactive). The GI50 in test [18] was 33.9 µM (inactive); in test [19] it was 85.5 µM (inactive).
In the case of `COc1ccc(-c2cc(=O)c3c(O)cc(C)cc3o2)cc1OC`, the GI50 in [1] was > 100 µM (inactive); in [2], > 100 µM (inactive); in test [3], 79.6 µM (inactive); in test [4], above 100 µM; in test [5] it was > 100 µM (inactive); in [6], > 100 µM (inactive). For the same molecule, the GI50 in test [7], in test [8], in test [9], in test [10], in [11] and in [12] was > 100 µM (inactive) in each case. Further, the GI50 was > 100 µM (inactive) in [13]; > 100 µM (inactive) in test [14]; > 100 µM (inactive) in test [15]; > 100 µM (inactive) in test [16]; 67.1 µM (inactive) in test [17]; > 100 µM (inactive) in test [18]. Also, in [19], the GI50 is > 100 µM (inactive).
With `CNC(=O)CCC(NC(=O)OC(C)(C)C)C(=O)NC(Cc1ccc([N+](=O)[O-])cc1)C(=O)NCC(=O)NC` (stereo unspecified) (Boc-Glu(NHMe)-[Phe(4-NO2)]-Gly-NHMe; configuration not given here), the GI50 was > 100 µM (inactive) in test [1]; > 100 µM (inactive) in test [2]; > 100 µM (inactive) in test [3]; above 100 µM in test [4]; > 100 µM (inactive) in test [5]; > 100 µM (inactive) in test [6]. Moreover, the GI50 in test [7], in test [8], in test [9], in test [10], in test [11] and in test [12] was > 100 µM (inactive) throughout. In addition, the GI50 in test [13], in test [14], in [15], in test [16], in test [17] and in [18] was > 100 µM (inactive) in each case. Besides, the GI50 in test [19] is > 100 µM (inactive).
As for `NCCO/C=C/C(N)C(=O)O` (stereo unspecified) [AMINOETHOXYVINYLGLYCINE], the GI50 was > 100 µM (inactive) in [1]; > 100 µM (inactive) in test [2]; > 100 µM (inactive) in [3]; above 100 µM in test [4]; > 100 µM (inactive) in [5]; > 100 µM (inactive) in [6]. The GI50 in test [7], in test [8], in test [9], in [10], in test [11] and in [12] was > 100 µM (inactive) each time. Also, the GI50 in test [13], in [14], in [15], in [16], in [17] and in test [18] was > 100 µM (inactive) in each case. For the same molecule, the GI50 in [19] was > 100 µM (inactive).
